For one data set, the system named is OVCAR-5. In words: Cell viability / cytotoxicity by high content imaging (DAPI nuclei count). The settings on record: for IC50: OVCAR-5, 24 h treatment. It is filed as cell-based. As to the method: (§1) The ovarian carcinoma cancer cell lines OVCAR-5 and SKOV3 were purchased from Fox Chase Cancer Facility, USA, Jerkitown, […]. The healthy fibroblast cell line NIH: 3T3 was utilized as a control. The cells were cultured in DMEM with the media being supplemented with 10% fetal bovine serum and 1% penicillin-streptomycin. Cells were incubated at 37 °C with 5% CO2. Upon the cells reaching 70–80% confluency, the cells were washed, and sub-cultured by harvesting using trypsin/EDTA.
(§2) Cells were grown until 80% confluency prior to utilization. Upon confluency, media was removed, and cells were washed twice in sterile PBS. Trypsin/EDTA was then added to the flasks and incubated at 37 °C for 5 min, allowing the cells to detach from the bottom of the flask. These cells were then collected and centrifuged. The pellet was resuspended, and the cells were counted using the trypan blue exclusion assay. A predetermined and equal number of cells were then added into each well of a 96-well plate. The cells were incubated overnight at 37 °C and at 5% CO2, allowing the cells to attach to the plates. […] Each treatment was performed in quintuplicate. Treatments occurred for 24 h. Subsequent to this time period, media was removed, and cells were fixed with 5% formaldehyde in PBS for 20 min. Next, cells were incubated for 15 min in a 1 µg/mL solution of DAPI. The plates were then washed several times with PBS to remove all residual DAPI and to reduce background fluorescence. All plates were stored in the dark. Plates were then run on the Logos Biosystem CELENA® X High Content Imaging System and analyses were performed using their proprietary software. IC50 values were calculated using a Prism Graph. Using the Logos Biosystem software, a pipeline was set up to determine the nuclei count, form factor, compactness and eccentricity. The following definitions were used:Eccentricity = ratio of the distance between the foci of the ellipse and its major axis length. Compactness = mean squared distance of the object’s pixels from the centroid divided by the area. Form Factor = 4 × π × Area/Perimeter2

In the next data set the test system is SKOV3. Described as above. It is filed as cell-based. The settings on record: for IC50: Homo sapiens, SK-OV-3, SKOV3, 24 h treatment. The protocol:
as §1, §2

A further data set relates to NIH:3T3. In words: Cell viability / cytotoxicity by high content imaging, healthy fibroblast control. It is filed as cell-based. The note with it: Mus musculus, NIH3T3; NIH:3T3 healthy fibroblast, 24 h treatment. The protocol: as §1, §2
Assay in data set [1]: as above
It is filed as cell-based. The settings on record: mouse, NIH:3T3 fibroblast cells. The protocol:
as §1, §2

Another data set has as its system OVCAR-5 cells. In words: Nuclear morphology analysis by high content imaging (eccentricity, compactness, form factor). It is filed as cell-based. The note with it: 24 h; for form factor of nuclei: OVCAR-5, treatment greater than 50 µM. The protocol:
Cells were grown until 80% confluency prior to utilization. Upon confluency, media was removed, and cells were washed twice in sterile PBS. Trypsin/EDTA was then added to the flasks and incubated at 37 °C for 5 min, allowing the cells to detach from the bottom of the flask. These cells were then collected and centrifuged. The pellet was resuspended, and the cells were counted using the trypan blue exclusion assay. A predetermined and equal number of cells were then added into each well of a 96-well plate. The cells were incubated overnight at 37 °C and at 5% CO2, allowing the cells to attach to the plates. […] Each treatment was performed in quintuplicate. Treatments occurred for 24 h. Subsequent to this time period, media was removed, and cells were fixed with 5% formaldehyde in PBS for 20 min. Next, cells were incubated for 15 min in a 1 µg/mL solution of DAPI. The plates were then washed several times with PBS to remove all residual DAPI and to reduce background fluorescence.

Data set [2] is described as follows: Saturation solubility at different pH. It is filed as physicochemical. The source says: Consequently, cancer targeting and specific release of an active agent at the tumor location is essential. Multiple tactics can be employed to achieve this. Herein, we exploited the acidification of the tumor microenvironment that accompanies malignant transformation for targeted detection and treatment. […] The slight acidification of the microenvironment surrounding a tumor is a hallmark feature of cancer and is termed the Warburg effect. Therefore, CurNQ can detect this change in pH associated with malignant transformation resulting from its pH specific solubility.
Figure 4 Fluorescence properties and pH specific properties of CurNQ. (A) Excitation and emission spectra of 1.5 µM solution of CurNQ. (B) Saturation solubility of a I.5 µM solution of CurNQ at pH 7.4 and 6.8.

We go through three molecules from article PMC7582707, “Synthesis and Properties of CurNQ for the Theranostic Application in Ovarian Cancer Intervention” (Molecules, 2020).

In brackets after ≈: the same amount, converted by molar mass.

As usually defined, the IC50 is the concentration needed to halve the response being measured. As for `COc1cc(/C=C/C(=O)CC(=O)/C=C/c2ccc(O)c(OC)c2)ccc1O` [CUR, diferuloylmethane, reference compound], the IC50 in the data set on OVCAR-5 (Homo sapiens) came to 9.64 µM; in the data set on SKOV3 it was 4.79 µM; in the data set on NIH:3T3 it was 43.9 µM.
The viability is a read-out of living cells in per cent, often relative to untreated cells. For orientation: solubility means the concentration that dissolves in the medium under given conditions. Consider `COc1cc(/C=C/C(=O)/C=C(O)/C=C/c2ccc(OC3=CC(=O)c4ccccc4C3=O)c(OC)c2)ccc1OC1=CC(=O)c2ccccc2C1=O` [CurNQ, 2,2′-((((1E,3Z,6E)-3-hydroxy-5-oxohepta-1,3,6-triene-1,7-diyl)bis(2-methoxy-4,1-phenylene))bis(oxy))bis(naphthalene-1,4-dione)], for which the IC50 in the data set on OVCAR-5 (Homo sapiens) was found to be 4.05 µM; in the data set on SKOV3, 5.35 µM; in the data set with NIH:3T3, 65.5 µM. Moreover, the cell viability result in the data set on OVCAR-5 (OVCAR-5, in vitro cytotoxicity assay) was “below 50%”; with OVCAR-5 (OVCAR-5, low concentrations, 24-h incubation), “below 40%”; in the data set on SKOV3 (SKOV3, in vitro cytotoxicity assay) it was “below 50%”. The molecule also gave a viability at 24 h, 100 µM in data set [1] (NIH:3T3, 100 µM) of 44%. Besides, the eccentricity of nuclei entry with OVCAR-5 cells (OVCAR-5, 5-100 µM) is “decreased in a dose-dependent manner”. In addition, the “form factor of nuclei” value with OVCAR-5 cells is recorded as “large increase”. Further, the solubility in data set [2] (pH 6.8, aqueous buffer) was determined as 20.7 µM (≈ 14.1 µg/mL); in data set [2] (pH 7.4, aqueous buffer), 11.2 µM (≈ 7.59 µg/mL).
Regarding `O=C1C=C(Br)C(=O)c2ccccc21` [BrNQ, 2-bromo-1,4-naphthoquinone, reference compound], the viability at 20 µM with OVCAR-5 (Homo sapiens, OVCAR-5, 24 h, read-out: cell viability) is under 10%. Further, the values for the IC50 in the data set with OVCAR-5 (Homo sapiens), in the data set with SKOV3 and with NIH:3T3 were 4.85 µM, 2.74 µM and 6.91 µM, respectively. Moreover, the viability at 24 h in data set [1] (NIH:3T3, lowest viability reached) is under 15%. The “form factor of nuclei” value in the data set on OVCAR-5 cells is “large increase”.
